Laboratory results as given in patent publication EP1293213A1, “PREVENTIVES/REMEDIES FOR POSTOPERATIVE STRESS” (Japan Tobacco Inc., priority 2000, dated 2001).
Read-outs that look alike come from different tables or passages of the source.

Key:
corticosterone = test: Test 2: Effects on a rise in releasing of corticosterone caused by surgical stress; assay type: in vivo, mouse; conditions: mice
Method: Test 2 Effects on a rise in releasing of stress hormone caused by surgical stress - effects on a rise in releasing of corticosterone, adrenocortical hormone.
Mice (ddY Slc male, 7weeks of age) handled by being fastened up before the day of experiment were divided equally into groups according to their weights on the experimental day (the number of mouse in one group was 6 to 7). Mice were anesthetized by i.p. injections of 2.5mg/mouse pentobarbital Na(Nembutal(brand name)), Dainihonseiyaku) and, 20 minutes later, the solvent(0.1N HCl/saline) or test medicine CP154,526HCl(0.3, 1, 3 or 10 mg/kg) were intravenously injected into the tail veins of mice at a dose of 10ml/Kg weight of mouse. 5 Minutes after injection, a midline incision was made in the abdomen, and in about one to two minutes movable bowel was draped externally, and then, abdominal part was covered with wet absorbent cotton with saline to prevent from drying. In 30 minutes after incision, while the bowel was draped externally, mice were decapitated and blood samples were collected into siliconized tubes, prechilled on ice, which contained 20ul of 100mM EDTA. Blood samples were centrifuged at 7,000 x g and 4°C for 20 minutes and the supernatant was obtained. Negative control mice not subjected to surgical stress were decapitated and blood samples were collected in 35 minutes after injection of the solvent alone. […]

[1] = system: adrenocorticotropic hormone (ACTH); test: Test 1: Effects on a rise in releasing of ACTH caused by surgical stress; assay type: in vivo, mouse; conditions: mice
Method: Test 1 Effects on a rise in releasing of stress hormone caused by surgical stress - effects on a rise in releasing of adrenocorticotropic hormone (ACTH)
Mice (ddY Slc male, 7 weeks of age) handled by being fastened up before the day of experiment were divided equally into groups according to their weights on the experimental day (the number of mouse in one group was 10). Mice were anesthetized by i.p. injection of 2.5mg/mouse pentobarbital Na (Nembutal(brand name), Dainihonseiyaku) and, 5 minutes later, the solvent(0.1N HCl/saline)alone or test medicine CP154,526HCl(0.3, 1 or 3 mg/kg)were intravenously injected into the tail veins of mice at a dose of 10ml/Kg weight of mouse. 10 minutes after injection, a midline incision was made in the abdomen and in about two minutes movable bowel was draped externally. Then 25 minutes after incision, 0.6ml of blood sample was collected from aorta abdominalis for 1 minute gradually by using prechilled syringes (needle size 25G) which were wetted with 100mM EDTA solution. Control mice not subjected to surgical stress were given medication by the injection of the solvent alone 5 minutes after anesthesia. […] Blood samples were centrifuged at 7,000 x g and 4°C for 20 minutes and the concentration of ACTH in supernatant was determined by IRMA method using Allegro ACTH kit (Nihon Medi+Physics Co., Ltd.). […]

[2] = target: T1, CRF type I(CRF-I) receptor (Homo sapiens, UniProt P34998); test: in vitro Binding Assay using membrane fraction of recombinant cell (6EF2B) expressing CRF receptor gene (SPA method); conditions: 125I-Tyr0-human/rat CRF, membrane fraction of 6EF2B cells (derived from Hela cell)
T1 construct: expressed in transfected cells; membrane fraction
T1 sequence (P34998 24-415): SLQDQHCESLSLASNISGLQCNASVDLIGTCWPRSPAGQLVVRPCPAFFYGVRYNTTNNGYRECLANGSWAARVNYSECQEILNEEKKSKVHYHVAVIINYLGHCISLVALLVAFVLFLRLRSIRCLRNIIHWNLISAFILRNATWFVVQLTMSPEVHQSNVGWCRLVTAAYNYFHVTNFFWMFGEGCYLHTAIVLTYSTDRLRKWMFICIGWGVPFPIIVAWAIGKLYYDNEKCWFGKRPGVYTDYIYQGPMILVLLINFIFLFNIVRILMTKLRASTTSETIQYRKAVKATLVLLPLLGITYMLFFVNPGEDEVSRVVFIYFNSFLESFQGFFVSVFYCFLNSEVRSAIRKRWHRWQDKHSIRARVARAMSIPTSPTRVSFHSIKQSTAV
Method: Experiment 1 : in vitro Binding Assay using membrane fraction of recombinant cell (6EF2B) with expression of CRF receptor gene
Preparation of membrane fraction:
Recombinant cells 6EF2B (derived from Hela cell), which express CRF type I(CRF-I) receptor gene stably, were cultivated in Eagle's MEM medium(10%FCS, 400ug/ml G418.1/100 penicillin/streptomycin). After cultivation, cells were suspended in 50mM Tris-HCl (pH7.2) solution containing 1mM EDTA and incubated at 25°C for 15 to 30 minutes. After that, every step was carried out at 4°C. Treated cells were suspended in 50mM Tris-HCl(pH7.2) containing 10% sucrose and homogenized by a Polytron(PT10-35 model). This step of homogenization was carried out at 25,000 rpm for 15 to 20 seconds and repeated twice or three times. In the course of this step the homogenates were inspected under a microscope. Homogenates were centrifuged at 600 x g for 5 minutes and the supernatant was centrifuged again at 40,000 x g for 30 minutes. The obtained pellet was resuspended in 50mM Tris-HCl(10mM MgCl2, 2mM EGTA) and the suspension was centrifuged again at 40,000 x g for 30minutes. The obtained pellet was used for further experiments as membrane fraction. The membrane fraction was diluted with 50mM Tris-HCl(10mM MgCl2, 2mM EGTA, 0.1%BSA, 100 kallikrein units/ml aprotinin, 0.1mM bacitracin, pH7.2) to have the concentration of 1mg/ml and then stored at -80°C. DC protein assay kit (produced by Bio-RAD) was used to determine the protein concentration of the membrane fraction.
Binding Assay using CRF-I receptor by means of SPA method:
Compounds to be evaluated were stored at the concentration of 10mM in DMSO. […] The assay buffer consisted of 50mM Tris-HCl (pH7.7) containing 100mM NaCl, 5mM KCl, 2mM CaCl2, 0.1% BSA, 0.1% bacitracin, 0.05% FCS and 5% horse serum. The reactions were carried out in 96-well Optiplate(Packard) in which to 50ul of the test substance solution, were added 50ul of WGA-beads & membrane fraction (50 to 100ug membrane fraction/10mg beads/ml) pre-coupled by stirring (rotating with 10rpm) at room temperature for 2 hours on the day of experiment, and 100ul of 0.4nM ^125I-Tyr^0-human/rat CRF(NEX-216, Dupont NEN), to be made up 200ul as total volume, and the mixture was incubated at 25°C for 3 hours. By the way, the step of pre-coupling was carried out by using beads solution (20mg/ml) suspended in 50mM Tris-HCl buffer solution (pH7.2) and after stirring beads were washed twice with Tris-HCl buffer and once with assay buffer by centrifugation (3000 rpm, 5 minutes). In order to measure total binding and non-specific binding activity, assay buffer solution and 1uM(final conc.) cold human /rat CRF(C-3042; SIGMA) solution were used respectively in place of test substance solution. After incubation, the mixture was centrifuged at 23 °C, 2,500 rpm for 5 minutes and the scintillation was counted with Top Count (Packard). An influence of color quench was corrected by standard curve made by using tartrazine as a quencher. Evaluation of samples was carried out several times.

[3] = system: adrenocorticotropic hormone(ACTH); test: Experiment 2: Model of surgical stress in mouse (inhibitory action of rise in releasing of ACTH); assay type: in vivo; conditions: ddY male mice, intravenous, surgical stress (abdominal incision, bowel draped externally)
Method: Experiment 2: Model of surgical stress in mouse (Inhibitory action of rise in releasing of adrenocorticotropic hormone(ACTH))
ddY male mice(SLC, 7 to 8 weeks of age: weight 34 to 42g)were used for experiments. Mice were housed before use under controlled lighting condition (12hours light and 12hours dark cycle(lights on from 8:00 to 20:00) at 23±3 °C and 55±15% humidity, and maintained with basal diet and water ad labium. On the experimental day, mice were moved to experimental room and habituated before experiment for more than 1 hour. On the day before experiment, mice were previously handled (by being fastened up for 10 to 15 seconds like the case of i.p. injections) to habituate to the stress caused by handling.
Medicine and administration:
Test compound to be evaluated was dissolved in and diluted with physiological saline(Otsuka), 5% mannitol or 0.1N NaHCO3/saline. Then the test sample solution was given into veins of mice at a dose of 10ml/Kg body weight. The same solvent alone mentioned above was given into veins of control mice group at a dose of 10ml/Kg weight.
Mice were anesthetized by injection of pentobarbital Na (2.5mg/mouse i.p.) and after 15 minutes the solvent alone or the solution containing test sample to be evaluated were intravenously injected on the tails of mice at a dose of 10ml/ Kg weight of mouse. After more 10 minutes a midline incision was made in the abdomen and in two minutes bowel was draped externally. Then 2.5 minutes after incision 0.6ml of blood samples were collected from main vein abdominalis for 1 minute gradually by using prechilled syringes(needle size 25G), which were wetted with 100mM EDTA solution. Control mice not subjected to surgical stress were decapitated and blood samples were collected at 13 to 14 minutes after medication of solvent alone and to them added 20ul of 100mM EDTA. Blood samples collected were put into siliconized tubes and centrifuged at 10,000rpm and 4°C for 5 minutes. The concentration of ACTH in supernatant was determined by IRMA method using Allegro ACTH kit (Nihon Medi+Physics Co.,Ltd.). […]

[4] = read-out: IC50(nM) [experiment 1]

CCCCN(CC)c1nc(C)nc2c1c(C)cn2-c1c(C)cc(C)cc1C.Cl [CP-154,526 HCl, N-butyl-N-[2,5-dimethyl-7-(2,4,6-trimethylphenyl)-7H -pyrrolo[2,3-d]pyrimidine-4-yl]-N-ethylamine chloride]
increase of corticosterone concentration in plasma (corticosterone; i.v. 0.3, 1, 3 or 10 mg/kg, surgical stress, viscera exposed 30 minutes, dose-dependently (Fig. 2)): inhibited | dose showing statistically significant inhibitory action on increase of corticosterone concentration in plasma (corticosterone; i.v., surgical stress (Fig. 2)): not less than 10 mg/Kg | increase of ACTH concentration in plasma ([1]; i.v. 0.3, 1 or 3 mg/kg, surgical stress, dose-dependently (Fig. 1)): inhibited | dose showing statistically significant inhibitory action on increase of ACTH concentration in plasma ([1]; i.v., surgical stress (Fig. 1)): not less than 1 mg/Kg

CCc1cc(S(=O)(=O)N(CC)CC)cc(NC(=O)c2cc(Cl)c(O)c(Cl)c2)c1OC [Example 6, 3,5-dichloro-N-(3-ethyl-5-diethylsulfamoyl-2-methoxyphenyl)-4-hydroxybenzamide]
IC50 [2, 4]: 218 nM

CCc1cc(S(=O)(=O)N(CC)CC)cc(NC(=O)c2cc(Cl)c([O-])c(Cl)c2)c1OC.[Na+] [Example 8, sodium 2,6-dichloro-4-(N-(3-ethyl-5-diethylsulfamoyl-2-methoxyphenyl)carbamoyl)phenoxide]
IC50 [2, 4]: 195 nM | Inhibitory action on ACTH release (mg/kg) [experiment 2] [3]: 10 to 30 mg/kg

CCc1cc(S(=O)(=O)N(CC)CC)cc(NC(=O)c2cc(Cl)c(OP(=O)(O)O)c(Cl)c2)c1OC.O=P(O)(O)O [Example 9, phosphate 2,6-dichloro-4-(N-(3-ethyl-5-diethylsulfamoyl-2-methoxyphenyl)carbamoyl)phenylphosphate]
IC50 ([2]; IC50(nM) [experiment 1]): 278 nM | Inhibitory action on ACTH release (mg/kg) [experiment 2] [3]: 10 to 30 mg/kg

CCN(CC)S(=O)(=O)c1cc(NC(=O)c2cc(Cl)c(O)c(Cl)c2)c(OC)c(OC)c1 [Example 10, 3,5-dichloro-N-(5-diethylsulfamoyl-2,3-dimethoxyphenyl)-4-hydroxybenzamide]
IC50 [2, 4]: 165 nM

CCN(CC)S(=O)(=O)c1cc(NC(=O)c2cc(Cl)c(O)c([N+](=O)[O-])c2)c(OC)c(OC)c1 [Example 11, 3-chloro-N-(5-diethylsulfamoyl-2,3-dimethoxyphenyl)-4-hydroxy-5-nitrobenzamide]
IC50 [2, 4]: 123 nM

CCN(CC)S(=O)(=O)c1cc(NC(=O)c2cc(Cl)c(O)c(Cl)c2)c(OC)c(N(C)C)c1 [Example 12, 3,5-dichloro-N-(5-diethylsulfamoyl-3-(dimethylamino)-2-methoxyphenyl)-4-hydroxybenzamide.]
IC50 [2, 4]: 57 nM
